The values that follow come from patent publication US20100113506A1, “COMPOSITION FOR PREVENTING OR TREATING THROMBUS- OR EMBOLUS- ASSOCIATED DISEASE” (priority 2007, published 2010).

The nature of data set [1]: Prothrombin time (PT) in platelet-poor plasma. The data set is classed as in vivo, Japanese white rabbits. The note with it: vs control group; EPA-E 300 mg/kg oral 4 weeks, clopidogrel 20 mg/kg single oral dose. Here is the method:
(§1) After the preliminary keeping, the rabbits were randomly divided into four groups, namely, control group, EPA-E group, clopidogrel group, and combination group. To the EPA-E group and the combination group, EPA-E was orally administered once a day for four weeks at a dose of 300 mg/kg. To the control group and the clopidogrel group, a 5% aqueous solution of gum arabic was orally administered instead of EPA-E. After the last EPA-E or gum arabic administration, the rabbits were fasted overnight, then clopidogrel was orally administered to the clopidogrel group and the combination group at a single dose of 20 mg/kg. […] Two hours after the clopidogrel administration, blood was sampled using a syringe containing citric acid in an amount of a tenth of the syringe volume, and the white blood cell count, red blood cell count, hemoglobin, hematocrit, and platelet count were measured on an automated hematology analyzer (type F-820 from Sysmex Corporation). […] The platelet aggregation activity was evaluated on the basis of maximum aggregation rate, and the suppressibility of platelet aggregation was calculated according to the following equation. Platelet-poor plasma (PPP) was measured in terms of prothrombin time (PT) and activated partial thromboplastin time (APTT) as coagulation-related parameters. […]

Data set [2] can be described thus: Bleeding time, ear puncture wound (method of Elg et al.). The data set is classed as in vivo, Japanese white rabbits. The note with it: rabbit ear puncture; EPA-E 300 mg/kg oral 4 weeks, clopidogrel 20 mg/kg single oral dose.
Data set [3] has as its system platelet aggregation induced by ADP. Nature of the data set: ADP-induced platelet aggregation in PRP of orally dosed rabbits (ex vivo). Further details: species or system Japanese white rabbits. As to conditions: ADP 3 μM, clopidogrel 20 mg/kg single oral dose; for Aggregation suppressibility: EPA-E 300 mg/kg oral once a day 4 weeks, blood 2 h after clopidogrel; for Effect on maximum aggregation rate: vs control group, EPA-E 300 mg/kg oral 4 weeks. The method, then: (§2) After the preliminary keeping, the rabbits were randomly divided into four groups, namely, control group, EPA-E group, clopidogrel group, and combination group. To the EPA-E group and the combination group, EPA-E was orally administered once a day for four weeks at a dose of 300 mg/kg. To the control group and the clopidogrel group, a 5% aqueous solution of gum arabic was orally administered instead of EPA-E. After the last EPA-E or gum arabic administration, the rabbits were fasted overnight, then clopidogrel was orally administered to the clopidogrel group and the combination group at a single dose of 20 mg/kg. To the control group and the EPA-E group, the 5% aqueous solution of gum arabic was orally administered instead of clopidogrel. Two hours after the clopidogrel administration, blood was sampled using a syringe containing citric acid in an amount of a tenth of the syringe volume, and the white blood cell count, red blood cell count, hemoglobin, hematocrit, and platelet count were measured on an automated hematology analyzer (type F-820 from Sysmex Corporation). The blood was centrifuged (at 150×g and at room temperature for 15 minutes) immediately after the above measurement to obtain platelet-rich plasma (PRP). The PRP was further centrifuged (at 1,500×g and at room temperature for 15 minutes) to collect platelet-poor plasma (PPP), and the platelet count was regulated with the PRP and PPP so that it might be […] (final level). The PRP was kept at 37° C. for four minutes, then an ADP (adenosine 5′-diphosphate) solution with a final concentration of 3 μM (MC Medical, Inc.) or a collagen solution with a final concentration of 6 μg/mL (Nycomed) was added thereto as an aggregation inducer so as to observe platelet aggregation using a platelet aggregation analyzer (MCM HEMA TRACER 313M from MC Medical, Inc.). The platelet aggregation activity was evaluated on the basis of maximum aggregation rate, and the suppressibility of platelet aggregation was calculated according to the following equation.
(§3) Aggregation suppressibility (%)={[maximum aggregation rate (mean) in control group]−[maximum aggregation rate (mean) in experimental group]}/[maximum aggregation rate (mean) in control group]×100.
(§4) The measurement results set forth for each group are each the mean of the values obtained in 8 or 9 cases plus/minus a standard error. The results were compared between the groups using the Tukey-Kramer method for multiple comparison testing, and the statistical significance was confirmed below a set level of 5%.

The nature of data set [4]: Hematological parameters on automated hematology analyzer. The data set is classed as in vivo, Japanese white rabbits. The note with it: for Hematocrit / Hemoglobin / Platelet count / Red blood cell count / White blood cell count: mean ± standard error, blood 2 h after clopidogrel, EPA-E 300 mg/kg 4 weeks, clopidogrel 20 mg/kg; for Change of white blood cell count, red blood cell count, hemoglobin, hematocrit and platelet count: vs control group. Here is the method: After the preliminary keeping, the rabbits were randomly divided into four groups, namely, control group, EPA-E group, clopidogrel group, and combination group. To the EPA-E group and the combination group, EPA-E was orally administered once a day for four weeks at a dose of 300 mg/kg. To the control group and the clopidogrel group, a 5% aqueous solution of gum arabic was orally administered instead of EPA-E. After the last EPA-E or gum arabic administration, the rabbits were fasted overnight, then clopidogrel was orally administered to the clopidogrel group and the combination group at a single dose of 20 mg/kg. To the control group and the EPA-E group, the 5% aqueous solution of gum arabic was orally administered instead of clopidogrel. Two hours after the clopidogrel administration, blood was sampled using a syringe containing citric acid in an amount of a tenth of the syringe volume, and the white blood cell count, red blood cell count, hemoglobin, hematocrit, and platelet count were measured on an automated hematology analyzer (type F-820 from Sysmex Corporation). The blood was centrifuged (at 150×g and at room temperature for 15 minutes) immediately after the above measurement to obtain platelet-rich plasma (PRP). […] The platelet aggregation activity was evaluated on the basis of maximum aggregation rate, and the suppressibility of platelet aggregation was calculated according to the following equation. The measurement results set forth for each group are each the mean of the values obtained in 8 or 9 cases plus/minus a standard error. The results were compared between the groups using the Tukey-Kramer method for multiple comparison testing, and the statistical significance was confirmed below a set level of 5%.

Data set [5] can be described thus: Activated partial thromboplastin time (APTT) in platelet-poor plasma. The data set is classed as in vivo, Japanese white rabbits. The note with it: vs control group; EPA-E 300 mg/kg oral 4 weeks, clopidogrel 20 mg/kg single oral dose. The method, then:
as §1

Data set [6] deals with platelet aggregation induced by collagen. The data set can be described thus: Collagen-induced platelet aggregation in PRP of orally dosed rabbits (ex vivo). Further details: species or system Japanese white rabbits. The note with it: collagen 6 μg/mL, clopidogrel 20 mg/kg single oral dose; for Effect on maximum aggregation rate: EPA-E 300 mg/kg oral 4 weeks; for Aggregation suppressibility: EPA-E 300 mg/kg oral once a day 4 weeks, blood 2 h after clopidogrel. Here is the method: as §2, §3, §4

In the case of `CC/C=C\C/C=C\C/C=C\C/C=C\C/C=C\CCCC(=O)OCC` [EPA-E, ethyl icosapentate], the “PT (prothrombin time) change” value in data set [1] is recorded as “neither PT (prothrombin time) nor APTT (activated partial thromboplastin time) had a statistically significant change”. For the same compound, the “Effect on bleeding time” value in data set [2] is listed as “had no influence on the bleeding time”. In data set [3], the Aggregation suppressibility worked out at 0% and the “Effect on maximum aggregation rate” value is “had no influence on the maximum aggregation rate”. In addition, in data set [4], the Hematocrit stood at 37.3 ± 0.6%, the Hemoglobin turned out to be 13.1 ± 0.2 g/dL, the Platelet count was 30.4 ± 1.2 ×10^4/μL and the “Red blood cell count” value is listed as 563 ± 10 ×10^4/μL. In data set [4], the “White blood cell count” value is on record as 58.8 ± 5.2 ×10^2/μL; the “Change of white blood cell count, red blood cell count, hemoglobin, hematocrit and platelet count” value was “had not a statistically significant change”. Besides, in data set [5], the “APTT (activated partial thromboplastin time) change” value is given as “neither PT (prothrombin time) nor APTT (activated partial thromboplastin time) had a statistically significant change”. For the same compound, in data set [6], the “Effect on maximum aggregation rate” value is “reduced the maximum aggregation rate significantly in a statistical sense” and the Aggregation suppressibility is reported as 29%.

Take `COC(=O)[C@H](c1ccccc1Cl)N1CCc2sccc2C1` [clopidogrel, (+)-(s)-methyl 2-(2-chlorophenyl)-2-(4,5,6,7-tetrahydrothieno[3,2-c]pyridin-5-yl) acetate monosulfate]: the “PT (prothrombin time) change” value in data set [1] was “neither PT (prothrombin time) nor APTT (activated partial thromboplastin time) had a statistically significant change”. Moreover, the “Effect on bleeding time” value in data set [2] is “prolonged the bleeding time significantly in a statistical sense”. Further, in data set [3], the Aggregation suppressibility is 29% and the “Effect on maximum aggregation rate” value is “reduced the maximum aggregation rate”. Moreover, in data set [4], the Hematocrit came to 39.3 ± 1.2%, the Hemoglobin is reported as 13.8 ± 0.4 g/dL, the Platelet count is on record as 38.0 ± 2.3 ×10^4/μL and the “Red blood cell count” value was 584 ± 17 ×10^4/μL. Also, in data set [4], the “White blood cell count” value was 58.0 ± 4.8 ×10^2/μL; the “Change of white blood cell count, red blood cell count, hemoglobin, hematocrit and platelet count” value is “had not a statistically significant change”. Also, in data set [5], the “APTT (activated partial thromboplastin time) change” value is recorded as “neither PT (prothrombin time) nor APTT (activated partial thromboplastin time) had a statistically significant change”. In addition, in data set [6], the “Effect on maximum aggregation rate” value is on record as “no differences were seen which were statistically significant” and the Aggregation suppressibility is given as 7%.
